# Measurements reported in patent US9624182B2, “Compounds as lysophosphatidic acid receptor antagonists” (Amira Pharmaceuticals, Inc., priority 2009, dated 2017).
# Molecular target: T1, human LPA1 (Homo sapiens, UniProt Q92633)
# T1 construct: the full-length cDNA for human LPA1 was obtained by PCR of the reverse transcription reaction; expressed in transfected cells
# Experiment: LPA1 calcium flux assay
# Format: cell-based
# Settings: CHO cells expressing human LPA1, stimulated with 10 nM LPA; read-out: HLPA1 Ca Flux IC50
# Procedure: A 1.1 kb cDNA encoding the human LPA1 receptor was cloned from human lung. Human lung RNA (Clontech Laboratories, Inc. USA) was reverse transcribed using the RETROscript kit (Ambion, Inc.) and the full-length cDNA for human LPA1 was obtained by PCR of the reverse transcription reaction. The nucleotide sequence of the cloned human LPA1 was determined by sequencing and confirmed to be identical to the published human LPA1 sequence (An et al. Biochenm. Biophys. Res. Commun. 231:619 (1997). The cDNA was cloned into the pCDNA5/FRT expression plasmid and transfected in CHO cells using lipofectamine 2000 (Invitrogen Corp., USA). Clones stably expressing human LPA1 were selected using hygromycin and identified as cells that show Ca-influx in response to LPA.
# Human LPA1 or LPA3 expressing CHO cells are seeded at 20,000-45,000 cells per well in a 96-well poly-D-lysine coated plate one or two days before the assay. Prior to the assay, the cells are washed once with PBS and then cultured in serum-free media overnight. On the day of the assay, a calcium indicator dye (Calcium 4, Molecular Devices) in assay buffer (HBSS with Ca^2+ and Mg^2+ and containing 20 mM Hepes and 0.3% fatty-acid free human serum albumin) is added to each well and incubation continued for 1 hour at 37° C. 10 μl of test compounds in 2.5% DMSO are added to the cells and incubation continued at room temperature for 30 minutes. Cells are the stimulated by the addition of 10 nM LPA and intracellular Ca^2+ measured using the Flexstation 3 (Molecular Devices). IC50s are determined using Graphpad prism analysis of drug titration curves.
# T1 sequence (Q92633 whole entry): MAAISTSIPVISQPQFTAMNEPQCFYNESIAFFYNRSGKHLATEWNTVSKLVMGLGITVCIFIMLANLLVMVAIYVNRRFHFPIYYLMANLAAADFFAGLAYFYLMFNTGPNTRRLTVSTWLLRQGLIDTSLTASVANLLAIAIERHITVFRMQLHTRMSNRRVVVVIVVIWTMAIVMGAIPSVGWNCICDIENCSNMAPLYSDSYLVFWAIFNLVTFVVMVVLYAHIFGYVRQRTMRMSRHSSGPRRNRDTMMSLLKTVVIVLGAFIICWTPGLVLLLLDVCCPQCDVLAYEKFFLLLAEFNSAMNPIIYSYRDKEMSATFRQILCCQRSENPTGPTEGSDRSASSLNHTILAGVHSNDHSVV
row,SMILES,IC50
1,"Cc1noc(-c2ccc(-c3ccc(C4(C(=O)O)CC4)cc3)cc2)c1CCOCC1CC1 [Compound 1-35, 1-{4′-[4-(2-Cyclopropylmethoxy-ethyl)-3-methyl-isoxazol-5-yl]-biphenyl-4-yl}-cyclopropanecarboxylic acid]",< 300 nM
2,"Cc1noc(-c2ccc(-c3ccc(C4(C(=O)O)CC4)cc3)cc2)c1CCNC(=O)c1ccccc1 [Compound 1-36, 1-{4′-[4-(2-Benzoylamino-ethyl)-3-methyl-isoxazol-5-yl]-biphenyl-4-yl}-cyclopropanecarboxylic acid]",1000 to 50000 nM
3,"Cc1noc(-c2ccc(-c3ccc(C4(C(=O)O)CC4)cc3)cc2)c1CCN(Cc1ccccc1)Cc1ccccc1 [Compound 1-37, 1-{4′-[4-(2-Dibenzylamino-ethyl)-3-methyl-isoxazol-5-yl]-biphenyl-4-yl}-cyclopropanecarboxylic acid]",1000 to 50000 nM
4,"Cc1noc(-c2ccc(-c3ccc(C4(C(=O)O)CC4)cc3)cc2)c1C(=O)NCCc1ccccc1 [Compound 1-38, 1-[4′-(3-Methyl-4-phenethylcarbamoyl-isoxazol-5-yl)-biphenyl-4-yl]-cyclopropanecarboxylic acid]",1000 to 50000 nM
5,"Cc1noc(-c2ccc(-c3ccc(C4(C(=O)O)CC4)cc3)cc2)c1CCC(=O)NC1CC1 [Compound 1-39, 1-{4′-[4-(2-Cyclopropylcarbamoyl-ethyl)-3-methyl-isoxazol-5-yl]-biphenyl-4-yl}-cyclopropanecarboxylic acid]",1000 to 50000 nM
6,"Cc1noc(-c2ccc(-c3ccc(C4(C(=O)O)CC4)cc3)cc2)c1CCC(=O)NCC1CC1 [Compound 1-40, 1-(4′-{4-[2-(Cyclopropylmethyl-carbamoyl)-ethyl]-3-methyl-isoxazol-5-yl}-biphenyl-4-yl)-cyclopropanecarboxylic acid]",1000 to 50000 nM
7,"Cc1noc(-c2ccc(-c3ccc(C4(C(=O)O)CC4)cc3)cc2)c1CCC(=O)N1CCCC1 [Compound 1-41, 1-{4′-[3-Methyl-4-(3-oxo-3-pyrrolidin-1-yl-propyl)-isoxazol-5-yl]-biphenyl-4-yl}-cyclopropanecarboxylic acid]",1000 to 50000 nM
8,"Cc1noc(-c2ccc(-c3ccc(C4(C(=O)O)CC4)cc3)cc2)c1CCC(=O)NCc1ccccc1 [Compound 1-42, 1-{4′-[4-(2-Benzylcarbamoyl-ethyl)-3-methyl-isoxazol-5-yl]-biphenyl-4-yl}-cyclopropanecarboxylic acid]",1000 to 50000 nM
9,"Cc1noc(-c2ccc(-c3ccc(C4(C(=O)O)CC4)cc3)cc2)c1CCC(=O)Nc1ccccc1 [Compound 1-43, 1-{4′-[3-Methyl-4-(2-phenylcarbamoyl-ethyl)-isoxazol-5-yl]-biphenyl-4-yl}-cyclopropanecarboxylic acid]",> 50000 nM
10,"Cc1noc(-c2ccc(-c3ccc(C4(C(=O)O)CC4)cc3)cc2)c1CCC(=O)N(C)Cc1ccccc1F [Compound 1-44, 1-[4′-(4-{2-[(2-Fluoro-benzyl)-methyl-carbamoyl]-ethyl}-3-methyl-isoxazol-5-yl)-biphenyl-4-yl]-cyclopropanecarboxylic acid]",< 300 nM
11,"Cc1noc(-c2ccc(-c3ccc(C4(C(=O)O)CC4)cc3)cc2)c1COCc1ccccc1 [Compound 1-45, 1-[4′-(4-Benzyloxymethyl-3-methyl-isoxazol-5-yl)-biphenyl-4-yl]-cyclopropanecarboxylic acid]",1000 to 50000 nM
12,"Cc1noc(-c2ccc(-c3ccc(C4(C(=O)O)CC4)cc3)cc2)c1COCc1ccccc1Cl [Compound 1-46, 1-{4′-[4-(2-Chloro-benzyloxymethyl)-3-methyl-isoxazol-5-yl]-biphenyl-4-yl}-cyclopropanecarboxylic acid]",1000 to 50000 nM
13,"Cc1noc(-c2ccc(-c3ccc(C4(C(=O)O)CC4)cc3)cc2)c1COC(C)c1ccccc1 (stereo not shown) [Compound 1-47, 1-{4′-[3-Methyl-4-(1-phenyl-ethoxymethyl)-isoxazol-5-yl]-biphenyl-4-yl}-cyclopropanecarboxylic acid]",1000 to 50000 nM
